Results on one compound are retold here after ChEMBL document CHEMBL1127702, “A proposed model of bradykinin bound to the rat B2 receptor and its utility for drug design” (J Med Chem, 1994).

For one assay, the species on record is Cavia porcellus. As to the kind of experiment: Compound was tested for bradykinin-induced contractions in guinea pig ileum. The format is functional. To be noted: read-out: pA2 (converted).
Another assay deals with T1, B2 bradykinin receptor (Cavia porcellus, UniProt O70526).
T1 sequence (O70526 whole entry): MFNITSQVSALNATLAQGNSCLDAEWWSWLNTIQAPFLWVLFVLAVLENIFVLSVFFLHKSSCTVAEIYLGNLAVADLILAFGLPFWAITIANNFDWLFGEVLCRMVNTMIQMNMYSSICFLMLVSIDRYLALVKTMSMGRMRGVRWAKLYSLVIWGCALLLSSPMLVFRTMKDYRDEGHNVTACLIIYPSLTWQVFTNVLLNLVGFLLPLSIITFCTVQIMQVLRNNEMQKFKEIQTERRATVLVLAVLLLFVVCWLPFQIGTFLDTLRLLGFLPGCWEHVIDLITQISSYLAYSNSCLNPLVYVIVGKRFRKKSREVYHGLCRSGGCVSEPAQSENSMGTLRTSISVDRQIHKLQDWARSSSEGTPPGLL
Put plainly: Binding affinity towards bradykinin receptor B2 using [3H]bradykinin.

Where a SMILES comes first, the peptide text is derived from it. [ ]: non-standard residue; d: D form. Oic = O=C(O)[C@@H]1C[C@@H]2CCCC[C@@H]2N1; Hyp = O=C(O)[C@@H]1C[C@@H](O)CN1; dTic = O=C(O)[C@H]1Cc2ccccc2CN1

The Ki is a dissociation constant, usually derived from enzyme kinetics or from competition with a known ligand. High values mean a looser hold on the target, low ones a stronger hold on the target. With `NC(N)=NCCC[C@@H](N)C(=O)N[C@@H](CCCN=C(N)N)C(=O)N1CCC[C@H]1C(=O)N1C[C@H](O)C[C@H]1C(=O)NCC(=O)N[C@@H](Cc1ccccc1)C(=O)N[C@@H](CO)C(=O)N1Cc2ccccc2C[C@@H]1C(=O)N1[C@H](C(=O)N[C@@H](CCCN=C(N)N)C(=O)O)C[C@@H]2CCCC[C@@H]21` (H-[dR]RP[Hyp]GFS[dTic][Oic]R-OH), the Kb in the assay listed under Cavia porcellus is 1.58 nM. At B2 bradykinin receptor, the affinity corresponds to a Ki of 0.11 nM.
